Marks after values point to notes of the source that are not given here.

In the experiment the test system is broiler chickens. The experiment is described as follows: Effect of iron source and level on hemoglobin, hematocrit, performance and iron bioavailability (slope-ratio) of iron-depleted broiler chicks. The experiment is classed as in vivo. The conditions noted are these: for Efficiency / Gain / Hematocrit / Intake: from day 7. The protocol:
Experiments were conducted to determine the effect of trace mineral level and source on hemoglobin, hematocrit and performance of broiler chickens. Bioavailability of iron was determined by the common-intercept multiple linear regression (slope-ratio) method (S. Aoyagi and D. H. Baker, Nutritional evaluation of a copper-methionine complex for chicks, Poult. Sci. 1993; 72:2309-15). For the first 7 days, chicks were fed a semi-purified diet based on dextrose, corn starch and casein (see Table 1), but with a low level of corn in order to encourage food intake. The calculated iron concentration was 25 ppm and the adaptation period was done in order to deplete iron stores received via the egg.
Beginning on day 7, chicks were provided experimental diets containing the three iron sources added to the basal diet as tabulated below. The three iron sources are commercial grade iron sulphate (FeSO4) (Comparative Example A), siderite (Comparative Example B) and agglomerated particles of starch and crystallites of iron(II) carbonate (Example 1; in accordance with the disclosure) (see Table 2). The agglomerated particles were prepared by grinding siderite to a d90 value below 5 subsequently mixing the ground iron(II) carbonate, starch and water, and spray drying the dispersion. The resulting agglomerated particles have a mean particle size of […]; the content of iron(II) carbonate is 36.94 wt %, based on the total weight of the agglomerated particles.
Birds were raised in Petersime batteries and all metal (feeders, waterers, raised wire floors) in contact with the birds was stainless steel. Water was deionized.
Statistical Analysis: Hemoglobin, hematocrit and performance data were regressed against dietary iron level for each source to obtain linear dose response relationships and bioavailability was calculated from the ratio of the slopes to that of FeSO4. Data (excluding the basal treatment) was also analyzed as a […]×4 level factorial arrangement of treatments. Slope ratios were calculated using the 0, 15, and 25 ppm added levels.

Setting [1] is: 15 ppm added iron in basal diet.
The mark [2] stands for this setting: 25 ppm added iron in basal diet.

For `O=S(=O)([O-])[O-].[Fe+2]` [Comparative Example A, iron sulphate (FeSO4)], under setting [1], the Efficiency was determined as 0.59 gain/feed, the Gain turned out to be 523.9 g/chick, the Hematocrit is reported as 38.3% and the Intake came to 888.2 g/chick. Also, under setting [2], the Efficiency is 0.62 gain/feed, the Gain is 548.5 g/chick, the Hematocrit is 37.2% and the Intake came to 884.0 g/chick. For the same compound, under “across all levels”, the “Efficiency, main effect mean for iron source” value was 0.61 gain/feed; the “Gain, main effect mean for iron source” value amounted to 531.8 g/chick; the “Hematocrit, main effect mean for iron source” value is reported as 37.3%; the “Intake, main effect mean for iron source” value is 867.5 ^a g/chick.

(Values after patent publication US20200146314A1, “TRACE MINERAL COMPOSITION” (Nutreco IP Assets B.V., priority 2017, published 2020).)
